The values that follow come from US20080039468A1, “Novel 3-Phenyltetrahydrocinnolin-5-Ol Derivative and Medicinal Use Thereof” (priority 2004, published 2008).

For the assay, the system named is Mastocarcinoma Cells MCF-7. The assay can be described thus: In vitro antitumor effect on mastocarcinoma cells MCF-7 (Methylene Blue staining, proliferation inhibition). Type of assay: cell-based. Conditions: MCF-7 cells, 3 days culture with test compound, RPMI 1640 with 10% serum, Methylene Blue absorbance; for IC50: Homo sapiens, MCF7, 72 h, read-out: IC50 value (50% cytostatic concentration). The method, then: In Vitro Antitumor Effect on Mastocarcinoma Cells MCF-7
By the use of RPMI 1640 medium (Asahi Tekunogurasu Co., Ltd.) containing 10% serum, 2,000 MCF-7 cells were seeded into a 96-well plate. The cells were cultured for 24 hours under conditions of 37° C. and 5% CO2/95% air, and then a test compound was added thereto, followed by culturing for another 3 days. Cells were stained with a 0.05% Methylene Blue solution and absorbance at 660 nm was measured with a microtiter plate reader (Benchmark Plus, mfd. by BIO RAD Laboratories Inc.). The proliferation inhibition rate was calculated by the following equation and the 50% cytostatic concentration was determined from a dose-response curve. Proliferation inhibition rate=((absorbance for control group−absorbance for drug-treated group)/absorbance for control group))×100

Converted amounts (≈) assume the structure as drawn.

As to `CC1Cc2nnc(-c3cccc(C(F)(F)F)c3)cc2C(OC(=O)CCC(=O)NCc2ccncc2)C1` (centres unmarked) [Compound No. 25, 5-[3-(pyridin-4-ylmethyl)aminocarbonylpropanoyl]oxy-7-methyl-3-(3-trifluoromethylphenyl)-5,6,7,8-tetrahydrocinnoline], the IC50 was 0.144 mg/L (≈ 0.289 µM). The same measure, in the same setting: as for `CC1Cc2nnc(-c3cccc(C(F)(F)F)c3)cc2C(OC(=O)COCC(=O)O)C1` (centres unmarked) [Compound No. 14, 5-(carboxymethoxyacetyl)oxy-7-methyl-3-(3-trifluoromethylphenyl)-5,6,7,8-tetrahydrocinnoline], the figure is 0.148 mg/L (≈ 0.349 µM). For `CC1Cc2nnc(-c3cccc(C(F)(F)F)c3)cc2C(OC(=O)CC(O)C(=O)O)C1` (centres unmarked) [Compound No. 20, 5-[(3-carboxy-3-hydroxy)propanoyl]oxy-7-methyl-3-(3-trifluoromethylphenyl)-5,6,7,8-tetrahydrocinnoline], the “IC50 value (50% cytostatic concentration)” value came out at 1.339 mg/L (≈ 3.16 µM). Consider `CCOCC(=O)OC1CC(C)Cc2nnc(-c3cccc(C(F)(F)F)c3)cc21` (centres unmarked) [Compound No. 13, 5-ethoxyacetyloxy-7-methyl-3-(3-trifluoromethylphenyl)-5,6,7,8-tetrahydrocinnoline], for which the IC50 was found to be 0.135 mg/L (≈ 0.342 µM). The same measure, in the same setting: next, `CC1Cc2nnc(-c3cccc(C(F)(F)F)c3)cc2C(OC(=O)CCCN(C)C)C1` (centres unmarked) [Compound No. 21, 5-(4-dimethylaminobutanoyl)oxy-7-methyl-3-(3-trifluoromethylphenyl)-5,6,7,8-tetrahydro-cinnoline]: 0.129 mg/L (≈ 0.306 µM); `CC1Cc2nnc(-c3cccc(C(F)(F)F)c3)cc2C(OC(=O)CCC(=O)O)C1` (centres unmarked) [Compound No. 18, 5-(3-carboxypropanoyl)oxy-7-methyl-3-(3-trifluoromethylphenyl)-5,6,7,8-tetrahydrocinnoline]: 0.981 mg/L (≈ 2.4 µM); `CC1Cc2nnc(-c3cccc(C(F)(F)F)c3)cc2C(OC(=O)COCC(=O)NCCN2CCOCC2)C1` (centres unmarked) [Compound No. 15, 5-[(2-(morpholin-4-yl)ethyl)aminocarbonylmethoxyacetyl]oxy-7-methyl-3-(3-trifluoromethylphenyl)-5,6,7,8-tetrahydrocinnoline]: 0.171 mg/L (≈ 0.319 µM).

As for `CCOC(=O)CCC(=O)OC1CC(C)Cc2nnc(-c3cccc(C(F)(F)F)c3)cc21` (centres unmarked) [Compound No. 27, 5-(3-ethoxycarbonylpropanoyl)oxy-7-methyl-3-(3-trifluoromethylphenyl)-5,6,7,8-tetrahydro-cinnoline], the IC50 is 0.736 mg/L (≈ 1.69 µM). Same read-out and setting: as for `COC(=O)CCC(=O)OC1CC(C)Cc2nnc(-c3cccc(C(F)(F)F)c3)cc21` (centres unmarked) [Compound No. 26, 5-(3-methoxycarbonylpropanoyl)oxy-7-methyl-3-(3-trifluoromethylphenyl)-5,6,7,8-tetrahydro-cinnoline], the figure is 1.18 mg/L (≈ 2.79 µM); as for `CC1Cc2nnc(-c3cccc(C(F)(F)F)c3)cc2C(OC(=O)COCC(=O)NCc2ccncc2)C1` (centres unmarked) [Compound No. 17, 5-[(pyridin-4-ylmethyl)aminocarbonylmethoxyacetyl]oxy-7-methyl-3-(3-trifluoromethyl-phenyl)-5,6,7,8-tetrahydrocinnoline], 0.139 mg/L (≈ 0.27 µM). On the same count and under the same terms, next, `COCCOC(=O)OC1CC(C)Cc2nnc(-c3cccc(C(F)(F)F)c3)cc21` (centres unmarked) [Compound No. 38, 5-(2-methoxyethoxycarbonyl)oxy-7-methyl-3-(3-trifluoromethylphenyl)-5,6,7,8-tetrahydro-cinnoline]: 0.649 mg/L (≈ 1.58 µM).

Turning to `CC1Cc2nnc(-c3cccc(C(F)(F)F)c3)cc2C(OC(=O)OCCN2CCOCC2)C1` (centres unmarked) [Compound No. 39, 5-(2-(morpholino-4-yl)ethoxycarbonyl)oxy-7-methyl-3-(3-trifluoromethylphenyl)-5,6,7,8-tetrahydrocinnoline], the “IC50 value (50% cytostatic concentration)” value was 0.152 mg/L (≈ 0.327 µM). For the compound `CC1Cc2nnc(-c3cccc(C(F)(F)F)c3)cc2C(OC(=O)CCC(=O)NCCN2CCOCC2)C1` (centres unmarked) [Compound No. 23, 5-[3-[2-(morpholin-4-yl)ethyl]amino-carbonylpropanoyl]oxy-7-methyl-3-(3-trifluoromethylphenyl)-5,6,7,8-tetrahydrocinnoline], the IC50 was determined as 0.128 mg/L (≈ 0.246 µM). Turning to `CC1Cc2nnc(-c3cccc(C(F)(F)F)c3)cc2C(OC(=O)COCC(=O)NCc2cccnc2)C1` (centres unmarked) [Compound No. 16, 5-[(pyridin-3-ylmethyl)aminocarbonylmethoxyacetyl]oxy-7-methyl-3-(3-trifluoromethyl-phenyl)-5,6,7,8-tetrahydrocinnoline], the IC50 worked out at 0.166 mg/L (≈ 0.323 µM). On to `CC1Cc2nnc(-c3cccc(C(F)(F)F)c3)cc2C(OC(=O)CCCC(=O)O)C1` (centres unmarked) [Compound No. 19, 5-(4-carboxybutanoyl)oxy-7-methyl-3-(3-trifluoromethylphenyl)-5,6,7,8-tetrahydrocinnoline], for which the IC50 turned out to be 0.908 mg/L (≈ 2.15 µM). On the same count and under the same terms, as for `CC1Cc2nnc(-c3cccc(C(F)(F)F)c3)cc2C(OC(=O)CCC(=O)NCc2cccnc2)C1` (centres unmarked) [Compound No. 24, 5-[3-(pyridin-3-ylmethyl)aminocarbonylpropanoyl]oxy-7-methyl-3-(3-trifluoromethylphenyl)-5,6,7,8-tetrahydrocinnoline], the figure is 0.098 mg/L (≈ 0.197 µM). The same measure, in the same setting: next, `CC1Cc2nnc(-c3cccc(C(F)(F)F)c3)cc2C(OC(=O)N2CCOCC2)C1.Cl` (centres unmarked) [Compound No. 43, 7-methyl-5-(morpholin-4-yl-carbonyl)oxy-3-(3-trifluoromethylphenyl)-5,6,7,8-tetrahydrocinnoline hydrochloride]: 4.34 mg/L.
